Calls of active or inactive are those of the source. The calls are words filed in the database; no cut-off is given here.
Key:
Rhizoctonia solani [1] = experiment: Fungicidal activity against Rhizoctonia solani infected in 24 hr compound pre-treated Oryza sativa cv. Chukyoasahi assessed as disease control measured after 10 days; assay type: functional
Pyricularia oryzae [2] = experiment: Fungicidal activity against Magnaporthe oryzae infected in 24 hr compound pre-treated Oryza sativa cv. Chukyoasahi assessed as disease control measured after 10 days; assay type: functional
Podosphaera fuliginea [3] = experiment: Fungicidal activity against Podosphaera fuliginea infected in 24 hr compound pre-treated cucumber plant assessed as disease control measured after 10 days; assay type: functional
Pyricularia oryzae [4] = experiment: Fungicidal activity against Magnaporthe oryzae assessed as SH-inhibition; assay type: functional, organism-based
Botrytis cinerea [5] = experiment: Fungicidal activity against Botryotinia fuckeliana assessed as SH-inhibition; assay type: functional, organism-based
Podosphaera fuliginea [6] = experiment: Fungicidal activity against Podosphaera fuliginea assessed as SH-inhibition; assay type: functional, organism-based
Rattus norvegicus = species on record: Rattus norvegicus; experiment: Inhibition of mitochondrial uncoupling in Rattus norvegicus (rat); assay type: functional, organism-based
Rhizoctonia solani [7] = experiment: Fungicidal activity against Rhizoctonia solani assessed as mitochondrial uncoupling activity; assay type: functional, organism-based
Pyricularia oryzae [8] = experiment: Fungicidal activity against Magnaporthe oryzae assessed as mitochondrial uncoupling activity; assay type: functional, organism-based
Podosphaera fuliginea [9] = experiment: Fungicidal activity against Podosphaera fuliginea assessed as mitochondrial uncoupling activity; assay type: functional, organism-based
Rhizoctonia solani [10] = experiment: Fungicidal activity against Rhizoctonia solani assessed as SH-inhibition; assay type: functional, organism-based
Botrytis cinerea [11] = experiment: Fungicidal activity against Botryotinia fuckeliana assessed as mitochondrial uncoupling activity; assay type: functional, organism-based

Row | SMILES | I90 (Rhizoctonia solani [1]) | I90 (Pyricularia oryzae [2]) | I90 (Podosphaera fuliginea [3]) | further results
1 | Nc1c(C(F)(F)F)cc([N+](=O)[O-])c(Nc2ncc(C(F)(F)F)cc2Cl)c1[N+](=O)[O-] | >500 ppm | >500 ppm | >500 ppm | –
2 | C[S+]([O-])c1c(C(F)(F)F)cc([N+](=O)[O-])c(Nc2ncc(C(F)(F)F)cc2Cl)c1[N+](=O)[O-] (centres undefined) | >500 ppm | 63 ppm | >500 ppm | –
3 | CCCCOc1c(C(F)(F)F)cc([N+](=O)[O-])c(Nc2ncc(C(F)(F)F)cc2Cl)c1[N+](=O)[O-] | >500 ppm | >500 ppm | >500 ppm | –
4 | O=[N+]([O-])c1cc(C(F)(F)F)c(Cl)c([N+](=O)[O-])c1Nc1ncc(C(F)(F)F)cc1Cl [FLUAZINAM] | – | <16 ppm | 63 ppm | Activity (Pyricularia oryzae [4]): Active; Activity (Botrytis cinerea [5]): Active; Activity (Podosphaera fuliginea [6]): inactive; Activity (Rattus norvegicus): Active; Activity (Rhizoctonia solani [7]): Active; Activity (Pyricularia oryzae [8]): Active; Activity (Podosphaera fuliginea [9]): Active; Activity (Rhizoctonia solani [10]): Active; Activity (Botrytis cinerea [11]): inactive
5 | CC(C)COc1c(C(F)(F)F)cc([N+](=O)[O-])c(Nc2ncc(C(F)(F)F)cc2Cl)c1[N+](=O)[O-] | 63 ppm | >500 ppm | >500 ppm | –
6 | CSc1c(C(F)(F)F)cc([N+](=O)[O-])c(Nc2ncc(C(F)(F)F)cc2Cl)c1[N+](=O)[O-] | 16 ppm | <16 ppm | 16 ppm | –
7 | CCCOc1c(C(F)(F)F)cc([N+](=O)[O-])c(Nc2ncc(C(F)(F)F)cc2Cl)c1[N+](=O)[O-] | 16 ppm | 63 ppm | >500 ppm | –
8 | O=[N+]([O-])c1cc(C(F)(F)F)c(OCC(F)(F)F)c([N+](=O)[O-])c1Nc1ncc(C(F)(F)F)cc1Cl | 63 ppm | >500 ppm | 16 ppm | –
9 | CCOc1c(C(F)(F)F)cc([N+](=O)[O-])c(Nc2ncc(C(F)(F)F)cc2Cl)c1[N+](=O)[O-] | 16 ppm | 16 ppm | 16 ppm | –
10 | O=[N+]([O-])c1cc(C(F)(F)F)c(I)c([N+](=O)[O-])c1Nc1ncc(C(F)(F)F)cc1Cl | >500 ppm | 16 ppm | >500 ppm | –
11 | O=[N+]([O-])c1cc(C(F)(F)F)c(Br)c([N+](=O)[O-])c1Nc1ncc(C(F)(F)F)cc1Cl | 63 ppm | 16 ppm | 63 ppm | –
12 | COc1c(C(F)(F)F)cc([N+](=O)[O-])c(Nc2ncc(C(F)(F)F)cc2Cl)c1[N+](=O)[O-] | 16 ppm | <16 ppm | 63 ppm | –

From ChEMBL document CHEMBL3045201, “Quantitative Structure-Activity Relationships of Fluazinam and Related Fungicidal N-phenylpyridinamines” (1996)
